The structures appear in SMILES notation. Some results are limits rather than exact numbers.

In general, Emax refers to the greatest response seen or fitted, relative to the assay's reference.

Holding throughout (format): cell-based
The target in one assay is T1, M1 muscarinic receptor (Homo sapiens, UniProt P11229).
T1 construct: expressed in transfected cells; host or cells: CHO (M1-CHO)
T1 sequence (P11229 1-460): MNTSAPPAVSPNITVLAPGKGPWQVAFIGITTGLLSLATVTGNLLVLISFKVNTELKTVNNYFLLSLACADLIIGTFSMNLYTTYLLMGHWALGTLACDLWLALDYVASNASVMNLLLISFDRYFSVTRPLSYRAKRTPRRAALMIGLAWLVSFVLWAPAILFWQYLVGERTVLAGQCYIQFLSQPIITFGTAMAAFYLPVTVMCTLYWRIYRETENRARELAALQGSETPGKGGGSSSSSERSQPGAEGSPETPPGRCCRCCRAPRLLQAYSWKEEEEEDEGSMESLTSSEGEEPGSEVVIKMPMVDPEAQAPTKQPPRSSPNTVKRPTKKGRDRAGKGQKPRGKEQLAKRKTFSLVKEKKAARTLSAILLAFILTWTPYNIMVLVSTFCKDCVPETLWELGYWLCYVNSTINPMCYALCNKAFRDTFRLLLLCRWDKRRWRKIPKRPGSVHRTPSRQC
Kind of assay: Functional mobilization of intracellular calcium (FLIPR) in CHO cells expressing M1. As to conditions: for M1 Activity: CHO cells expressing M1, FLIPR calcium assay; for Emax: CHO, 100% efficacy = maximum response obtained with the Carbachol control. In short, it runs like this:
(§1)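 Recombinant CHO cells loaded with Fluo-3 AM or Calcium 3 dye in pH 7.4 buffer containing 1 mM probenecid, with 0.5% final DMSO. For agonism, compound is added directly. For inhibition, it is preincubated 15 min, or co-applied, before carbachol at EC80. FLIPR fluorescence (ex 488, em 540 nm) is recorded for 60 s.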
For orientation: Calcium assays in cells follow changes in intracellular calcium, usually with a dye or a luminescent sensor.

In another assay the target is T2, M4 muscarinic receptor (Homo sapiens, UniProt P08173).
T2 construct: expressed in transfected cells; host or cells: CHO (M4-CHO)
T2 sequence (P08173 1-479): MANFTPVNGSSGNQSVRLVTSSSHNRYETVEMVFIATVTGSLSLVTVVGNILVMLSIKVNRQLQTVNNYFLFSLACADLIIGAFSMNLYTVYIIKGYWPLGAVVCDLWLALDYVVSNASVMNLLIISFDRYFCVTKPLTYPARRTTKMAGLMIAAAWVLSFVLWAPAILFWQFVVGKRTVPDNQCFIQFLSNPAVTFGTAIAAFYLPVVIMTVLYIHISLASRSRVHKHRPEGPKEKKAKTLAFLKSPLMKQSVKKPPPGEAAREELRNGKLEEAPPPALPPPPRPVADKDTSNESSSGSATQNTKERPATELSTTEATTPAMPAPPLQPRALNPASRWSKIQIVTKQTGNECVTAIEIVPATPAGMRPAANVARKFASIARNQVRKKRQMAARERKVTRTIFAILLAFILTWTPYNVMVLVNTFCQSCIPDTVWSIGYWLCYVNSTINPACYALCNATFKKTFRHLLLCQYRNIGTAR
As to the kind of experiment: Functional mobilization of intracellular calcium (FLIPR) in CHO cells expressing M4. As to conditions: for M4 Activity: CHO cells expressing M4, FLIPR calcium assay; for Emax: CHO, 100% efficacy = maximum response obtained with the Carbachol control. In short, it runs like this:
as §1

Another assay concerns the target T3, M3 muscarinic receptor (Homo sapiens, UniProt P20309).
T3 construct: expressed in transfected cells; host or cells: CHO (M3-CHO)
Kind of assay: Functional mobilization of intracellular calcium (FLIPR) in CHO cells expressing M3. As to conditions: for M3 Activity: CHO cells expressing M3, FLIPR calcium assay; for Emax: CHO, 100% efficacy = maximum response obtained with the Carbachol control. In short, it runs like this: as §1

A further assay addresses T4, M2 muscarinic receptor (Homo sapiens, UniProt P08172).
T4 construct: expressed in transfected cells; host or cells: CHO (M2-CHO)
T4 sequence (P08172 1-466): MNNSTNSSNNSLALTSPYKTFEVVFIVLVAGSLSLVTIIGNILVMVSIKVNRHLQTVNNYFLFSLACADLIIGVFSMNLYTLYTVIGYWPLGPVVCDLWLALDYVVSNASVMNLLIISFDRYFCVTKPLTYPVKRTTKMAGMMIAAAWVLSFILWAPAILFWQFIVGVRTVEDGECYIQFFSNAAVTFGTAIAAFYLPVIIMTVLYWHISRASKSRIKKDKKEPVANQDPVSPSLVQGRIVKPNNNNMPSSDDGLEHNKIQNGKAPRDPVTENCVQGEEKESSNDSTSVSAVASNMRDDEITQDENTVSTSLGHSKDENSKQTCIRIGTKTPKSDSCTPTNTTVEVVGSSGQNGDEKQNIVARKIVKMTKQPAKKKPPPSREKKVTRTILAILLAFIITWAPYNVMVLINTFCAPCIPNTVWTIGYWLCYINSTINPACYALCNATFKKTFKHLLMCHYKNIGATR
Kind of assay: Functional mobilization of intracellular calcium (FLIPR) in CHO cells expressing M2. As to conditions: for M2 Activity: CHO cells expressing M2, FLIPR calcium assay; for Emax: CHO, 100% efficacy = maximum response obtained with the Carbachol control. In short, it runs like this:
as §1

T3 sequence (P20309 whole entry): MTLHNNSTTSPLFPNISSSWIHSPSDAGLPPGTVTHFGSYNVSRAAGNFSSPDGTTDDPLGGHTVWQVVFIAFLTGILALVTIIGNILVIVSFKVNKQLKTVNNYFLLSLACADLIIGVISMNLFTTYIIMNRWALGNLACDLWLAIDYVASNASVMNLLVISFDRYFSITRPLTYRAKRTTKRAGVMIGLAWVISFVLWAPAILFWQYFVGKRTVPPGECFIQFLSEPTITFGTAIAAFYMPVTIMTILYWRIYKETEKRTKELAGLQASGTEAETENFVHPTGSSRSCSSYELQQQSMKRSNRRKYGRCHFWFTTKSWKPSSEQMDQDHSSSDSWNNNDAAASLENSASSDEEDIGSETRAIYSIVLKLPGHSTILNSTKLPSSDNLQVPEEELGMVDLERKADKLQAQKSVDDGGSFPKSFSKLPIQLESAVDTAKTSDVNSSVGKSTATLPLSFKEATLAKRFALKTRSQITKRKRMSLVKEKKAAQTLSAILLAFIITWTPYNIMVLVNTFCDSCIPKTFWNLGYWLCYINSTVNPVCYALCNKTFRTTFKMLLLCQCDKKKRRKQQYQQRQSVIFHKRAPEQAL

For `CC(=O)N[C@H]1CC2(CCN(CCC(C)CCC=C(C)C)CC2)c2ccccc21` (stereo partly drawn) [compound 282], at M1 muscarinic receptor, the “M1 Activity” value is recorded as “+++ (activity was measured to be less than 2.0 μM)” and the Emax fell in the range of 25 to 100%. Further, on M4 muscarinic receptor, the “M4 Activity” value is “+ (activity was measured to be greater than 5.0 μM)” and the Emax is below 25%. Moreover, on M3 muscarinic receptor, the “M3 Activity” value is reported as “+ (activity was measured to be greater than 5.0 μM)” and the Emax is below 25%. On M2 muscarinic receptor, the “M2 Activity” value is reported as “+ (activity was measured to be greater than 5.0 μM)” and the maximal effect (Emax) was below 25%.

With `Cc1ccc2c(c1)C(=O)CC21CCN(CCC(C)(C)C)CC1` [compound 288], on M1 muscarinic receptor, the “M1 Activity” value is “+ (activity was measured to be greater than 5.0 μM)” and the Emax is 25 to 100%. Moreover, on M4 muscarinic receptor, the “M4 Activity” value is reported as “++ (activity was measured to be from 2.0 μM to 5.0 μM)” and the Emax fell in the range of 25 to 100%. At M3 muscarinic receptor, the “M3 Activity” value is on record as “+ (activity was measured to be greater than 5.0 μM)” and the Emax is below 25%. Besides, on M2 muscarinic receptor, the “M2 Activity” value was “+ (activity was measured to be greater than 5.0 μM)” and the Emax was below 25%.

Turning to `CC(=O)N[C@H]1CC2(CCN(CC(=O)N(C)C)CC2)c2ccccc21` [compound 289], at M1 muscarinic receptor, the “M1 Activity” value is “+ (activity was measured to be greater than 5.0 μM)” and the Emax was below 25%. In addition, at M4 muscarinic receptor, the “M4 Activity” value is reported as “+ (activity was measured to be greater than 5.0 μM)” and the Emax was below 25%. Further, at M3 muscarinic receptor, the “M3 Activity” value was “+ (activity was measured to be greater than 5.0 μM)” and the Emax was below 25%. Further, at M2 muscarinic receptor, the “M2 Activity” value is on record as “+ (activity was measured to be greater than 5.0 μM)” and the Emax is below 25%.

On to `CC(=O)NC1CC2(CCN(C(C)C(C)C)CC2)c2ccccc21` (stereo not drawn) [compound 290], for which, on M1 muscarinic receptor, the “M1 Activity” value is recorded as “+ (activity was measured to be greater than 5.0 μM)” and the Emax lay within 25 to 100%. At M4 muscarinic receptor, the “M4 Activity” value is on record as “+ (activity was measured to be greater than 5.0 μM)” and the Emax fell in the range of 25 to 100%. In addition, on M3 muscarinic receptor, the “M3 Activity” value is listed as “+ (activity was measured to be greater than 5.0 μM)” and the Emax is below 25%. Moreover, at M2 muscarinic receptor, the “M2 Activity” value is listed as “+ (activity was measured to be greater than 5.0 μM)” and the Emax is below 25%.

In the case of `CC(C)(C)CCN1CCC2(CC1)C[C@H](NC(=O)c1ccoc1)c1ccccc12` [compound 292], at M1 muscarinic receptor, the “M1 Activity” value was “+ (activity was measured to be greater than 5.0 μM)” and the Emax is below 25%. In addition, on M4 muscarinic receptor, the “M4 Activity” value is given as “+ (activity was measured to be greater than 5.0 μM)” and the Emax was below 25%. Besides, at M3 muscarinic receptor, the “M3 Activity” value is “+ (activity was measured to be greater than 5.0 μM)” and the Emax was below 25%. For the same compound, on M2 muscarinic receptor, the “M2 Activity” value is reported as “+ (activity was measured to be greater than 5.0 μM)” and the Emax was below 25%.

Regarding `CC(C)CCN1CCC2(CC1)C[C@H](NC(=O)N(C)C)c1ccccc12` [compound 293], at M1 muscarinic receptor, the “M1 Activity” value is “+ (activity was measured to be greater than 5.0 μM)” and the Emax was below 25%. At M4 muscarinic receptor, the “M4 Activity” value was “+ (activity was measured to be greater than 5.0 μM)” and the Emax was below 25%. Moreover, at M3 muscarinic receptor, the “M3 Activity” value is on record as “+ (activity was measured to be greater than 5.0 μM)” and the Emax was below 25%. Further, on M2 muscarinic receptor, the “M2 Activity” value is “+ (activity was measured to be greater than 5.0 μM)” and the Emax was below 25%.

In the case of `CC(C)CCN1CCC2(CC1)C[C@H](NC(=O)N1CCCC1)c1ccccc12` [compound 294], on M1 muscarinic receptor, the “M1 Activity” value was “+ (activity was measured to be greater than 5.0 μM)” and the Emax was below 25%. Further, at M4 muscarinic receptor, the “M4 Activity” value is reported as “+ (activity was measured to be greater than 5.0 μM)” and the Emax was below 25%. At M3 muscarinic receptor, the “M3 Activity” value is “+ (activity was measured to be greater than 5.0 μM)” and the Emax is below 25%. On M2 muscarinic receptor, the “M2 Activity” value is “+ (activity was measured to be greater than 5.0 μM)” and the Emax was below 25%.

In the case of `CC(C)(C)OC(=O)N1CCC2(CC1)C[C@H](NC(=O)C1CCCC1)c1ccccc12` [compound 295], on M1 muscarinic receptor, the “M1 Activity” value is listed as “+ (activity was measured to be greater than 5.0 μM)” and the Emax is below 25%. For the same compound, at M4 muscarinic receptor, the “M4 Activity” value was “+ (activity was measured to be greater than 5.0 μM)” and the Emax was below 25%. In addition, at M3 muscarinic receptor, the “M3 Activity” value is on record as “+ (activity was measured to be greater than 5.0 μM)” and the Emax was below 25%. On M2 muscarinic receptor, the “M2 Activity” value is reported as “+ (activity was measured to be greater than 5.0 μM)” and the Emax is below 25%.

Take `CN(C)C(=O)N[C@H]1CC2(CCN(CCC(C)(C)C)CC2)c2ccccc21` [compound 297]: on M1 muscarinic receptor, the “M1 Activity” value was “+ (activity was measured to be greater than 5.0 μM)” and the Emax was below 25%. Further, on M4 muscarinic receptor, the “M4 Activity” value is “+ (activity was measured to be greater than 5.0 μM)” and the Emax was below 25%. Also, on M3 muscarinic receptor, the “M3 Activity” value was “+ (activity was measured to be greater than 5.0 μM)” and the Emax was below 25%. In addition, at M2 muscarinic receptor, the “M2 Activity” value was “+ (activity was measured to be greater than 5.0 μM)” and the Emax is below 25%.

Consider `CN(C)C(=O)N[C@H]1CC2(CCN(C(=O)OC(C)(C)C)CC2)c2ccccc21` [compound 298], for which, at M1 muscarinic receptor, the “M1 Activity” value is given as “+ (activity was measured to be greater than 5.0 μM)” and the Emax was below 25%. In addition, at M4 muscarinic receptor, the “M4 Activity” value was “+ (activity was measured to be greater than 5.0 μM)” and the Emax was below 25%. For the same compound, at M3 muscarinic receptor, the “M3 Activity” value was “+ (activity was measured to be greater than 5.0 μM)” and the Emax is below 25%. Further, on M2 muscarinic receptor, the “M2 Activity” value was “+ (activity was measured to be greater than 5.0 μM)” and the Emax was below 25%.

Regarding `CC(C)CCN1CCC2(CC1)C[C@H](NC(=O)C1CCCC1)c1ccccc12` [compound 299], on M1 muscarinic receptor, the “M1 Activity” value is listed as “+ (activity was measured to be greater than 5.0 μM)” and the Emax is below 25%. In addition, at M4 muscarinic receptor, the “M4 Activity” value is given as “+ (activity was measured to be greater than 5.0 μM)” and the Emax was below 25%. Moreover, on M3 muscarinic receptor, the “M3 Activity” value is given as “+ (activity was measured to be greater than 5.0 μM)” and the Emax is below 25%. In addition, on M2 muscarinic receptor, the “M2 Activity” value is given as “+ (activity was measured to be greater than 5.0 μM)” and the Emax was below 25%.

Turning to `CC(C)(C)CCN1CCC2(CC1)C[C@H](NC(=O)C1CC1)c1ccccc12` [compound 300], on M1 muscarinic receptor, the “M1 Activity” value is on record as “+++ (activity was measured to be less than 2.0 μM)” and the Emax was in the range of 25 to 100%. Also, on M4 muscarinic receptor, the “M4 Activity” value is “+++ (activity was measured to be less than 2.0 μM)” and the Emax is below 25%. Moreover, on M3 muscarinic receptor, the “M3 Activity” value is “+ (activity was measured to be greater than 5.0 μM)” and the Emax is below 25%. At M2 muscarinic receptor, the “M2 Activity” value was “+ (activity was measured to be greater than 5.0 μM)” and the Emax is below 25%.

The values are drawn from US8003660B2, “Modulators of muscarinic receptors” (Vertex Pharmaceuticals Incorporated, priority 2006, dated 2011).
